Data from US20210278408A1, “METHODS OF TREATMENT OF CANCER WITH SUBSTITUTED PYRROLE AND PYRAZOLE COMPOUNDS AND DIAGNOSIS OF CANCERS SUSCEPTIBLE TO TREATMENT WITH SUBSTITUTED PYRROLE AND PYRAZOLE COMPOUNDS” (Bantam Pharmaceutical, LLC, priority 2018, published 2021).
pIC50: −log10 of the molar value.

Assays:
Type in all cases: cell-based, human
[1] = tested on: SU-DHL-10; assay: Anti-proliferative activity, CellTiter-Glo, 72 hours: SU-DHL-10; conditions: SU-DHL-10 (B-cell lymphoma), Cell-Titre-Glo
Description: (§1) Anti-proliferative activity of BTM compounds. The anti-proliferative activities of Compound A197 and Compound B19 were compared to 4EGI-1 (a known cancer cell growth inhibitor) in a panel of 99 tumor lines. Methods: A panel of 96 tumor and 3 normal cell lines were tested for sensitivity to the test compound. The cell lines were cultured in standard media and pipetted into 96-well plates at the required plating densities. The cells were acclimated for 24 hours prior to compound testing. Compound was prepared as a stock of 20 mM in DMSO. To prepare dose response curves compound was serially diluted in DMSO and dispensed into the plate wells using a Tecan D300e digital dispenser. The final DMSO concentration was 0.15%. After 72 hours of incubation cell number was determined using the CellTiter-Glo® protocol according to the manufacturers instructions (Promega). In this assay, ATP is measured as a surrogate of cell number. The activity of the compound is determined by comparing untreated cells with treated cells and calculating the % of signal retained. Compound activity is measured as an EC50 of maximum level of efficacy and the two are used to compute an activity area. The table below provides a comparison of activity in a data sample.

[2] = tested on: HCT-116; assay: Anti-proliferative activity, CellTiter-Glo, 72 hours: HCT-116; conditions: HCT-116 (colorectal cancer), Cell-Titre-Glo
Description: as §1

[3] = tested on: NCI-H460; assay: Anti-proliferative activity, CellTiter-Glo, 72 hours: NCI-H460; conditions: NCI-H460 (non-small cell lung cancer), Cell-Titre-Glo
Description: as §1

[4] = tested on: SU-DHL-4; assay: Anti-proliferative activity, CellTiter-Glo, 72 hours: SU-DHL-4; conditions: SU-DHL-4 (B-cell lymphoma), Cell-Titre-Glo
Description: as §1

[5] = tested on: SU-DHL-6; assay: Anti-proliferative activity, CellTiter-Glo, 72 hours: SU-DHL-6; conditions: SU-DHL-6 (B-cell lymphoma), Cell-Titre-Glo
Description: as §1

[6] = tested on: MDA-MB-157; assay: Anti-proliferative activity, CellTiter-Glo, 72 hours: MDA-MB-157; conditions: MDA-MB-157 (breast cancer); 72 hours; Cell-Titre-Glo
Description: as §1

[7] = tested on: Jurkat; assay: Anti-proliferative activity, CellTiter-Glo, 72 hours: Jurkat; conditions: Jurkat (T cell leukemia), Cell-Titre-Glo
Description: as §1

[8] = tested on: A549; assay: Anti-proliferative activity, CellTiter-Glo, 72 hours: A549; conditions: A549 (non-small cell lung cancer), Cell-Titre-Glo
Description: as §1

[9] = tested on: LoVo; assay: Anti-proliferative activity, CellTiter-Glo, 72 hours: LoVo; conditions: LoVo (colorectal cancer), Cell-Titre-Glo
Description: as §1

[10] = tested on: NCI-H2122; assay: Anti-proliferative activity, CellTiter-Glo, 72 hours: NCI-H2122; conditions: NCI-H2122 (non-small cell lung cancer), Cell-Titre-Glo
Description: as §1

[11] = tested on: HT-1080; assay: Anti-proliferative activity, CellTiter-Glo, 72 hours: HT-1080; conditions: HT-1080 (fibrosarcoma), Cell-Titre-Glo
Description: as §1

[12] = tested on: HK-2; assay: Anti-proliferative activity, CellTiter-Glo, 72 hours: HK-2; conditions: HK-2 (kidney epilithial), Cell-Titre-Glo
Description: as §1

[13] = tested on: MDA-MB-231; assay: Anti-proliferative activity, CellTiter-Glo, 72 hours: MDA-MB-231; conditions: MDA-MB-231 (breast cancer), Cell-Titre-Glo
Description: as §1

[14] = tested on: MIA PaCa-2; assay: Anti-proliferative activity, CellTiter-Glo, 72 hours: MIA PaCa-2; conditions: MIA PaCa-2 (pancreactic cancer (carcinoma)), Cell-Titre-Glo
Description: as §1

[15] = tested on: SK-MEL-28; assay: Anti-proliferative activity, CellTiter-Glo, 72 hours: SK-MEL-28; conditions: SK-MEL-28 (melanoma), Cell-Titre-Glo
Description: as §1

[16] = tested on: HUVEC; assay: Anti-proliferative activity, CellTiter-Glo, 72 hours: HUVEC; conditions: HUVEC (primary endolithial cells), Cell-Titre-Glo
Description: as §1

pIC50 [1]: 4.71
pIC50 [2]: 4.98
pIC50 [3]: 5.02
pIC50 [4]: 5.07
pIC50 [5]: 5.14
pIC50 [6]: 4.93
pIC50 [7]: 4.88
pIC50 [8]: 4.66
pIC50 [9]: 4.85
pIC50 [10]: 4.86
pIC50 [11]: 5.33
pIC50 [13]: 5.24
pIC50 [14]: 4.85
pIC50 [15]: 4.48
Structure (SMILES): O=C(O)C(Cc1ccccc1[N+](=O)[O-])=NNc1nc(-c2ccc(Cl)c(Cl)c2)cs1 (mixture of isomers) [Compound 4EGI-1, 4EGI-1, reference compound]
pIC50 [12]: 4.34
pIC50 [16]: 5.10
